Laboratory results published in US8846653B2, “Delta-tocotrienol treatment and prevention of pancreatic cancer” (University of South Florida, priority 2006, dated 2014).

Tests used:
Format in all cases: cell-based, human
[1] = test system: SW1990 pancreatic cancer cells; test: MTS assay of SW1990 cultures, single 50 μM dose; settings: SW1990, 50 μM
Summary of the method: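 MTS-based viability was measured 24, 48 or 72 h after a single 50 μM treatment; the agents were α/β/γ/δ-tocotrienol, α/β-tocopherol, tocopherol succinate, geranylgeraniol or succinic acid. The cells were SW1990, cultured in 10% FBS DMEM. Vehicle (ethanol-extracted olive oil) cultures ran in parallel as reference.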

BXPC3 cells = test: MTT assay of BXPC3 cultures, single 50 μM dose; set-up: MTT assay result, run 1 / MTT assay result, run 2 / MTT assay result, run 3 / MTT assay result, run 4 / MTT assay result, run 5 / MTT assay result, run 6 / MTT assay result, run 7 / MTT assay result, av (average) / MTT assay result, av-blank / MTT assay result, av: unit not given here; settings: BXPC3, 50 μM; for MTT assay result, av-blank: average minus blank
Summary of the method: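 Viability measured by MTT assay 48 or 120 hours after one 50 μM treatment with tocol-family compounds, geranylgeraniol, succinic acid or vehicle, with untreated cultures in parallel. BXPC3 cells grown in FBS-supplemented medium, 37° C, humidified 5% CO2.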

MiaPaCa-2 cells = test: MTS assay of MiaPaCa2 cultures, single 50 μM dose; settings: MiaPaCa2, 50 μM
Summary of the method: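 This MTS viability assay used MiaPaCa2 cultures treated once with 50 μM compound or vehicle, with an untreated culture grown in parallel for comparison. Cells were maintained in DMEM supplemented with 10% FBS, 1% penicillin-streptomycin and 1% L-glutamine at 37° C. under 5% CO2 and humidity.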

CC(C)=CCC/C(C)=C/CC/C(C)=C/CC[C@]1(C)CCc2cc(O)c(C)c(C)c2O1 [T3 gamma, gamma tocotrienol]
rel amnt (relative value set to the control) ([1]; 24 hours): 107 | MTS assay result, run 1 ([1]; 24 hours): 0.169 | MTS assay result, run 2 ([1]; 24 hours): 0.161 | MTS assay result, run 3 ([1]; 24 hours): 0.163 | MTS assay result, run 4 ([1]; 24 hours): 0.143 | MTS assay result, run 5 ([1]; 24 hours): 0.15 | MTS assay result, run 6 ([1]; 24 hours): 0.158 | MTS assay result, run 7 ([1]; 24 hours): 0.159 | MTS assay result, run 8 ([1]; 24 hours): 0.151 | MTS assay result, run 9 ([1]; 24 hours): 0.157 | rel amnt (relative value set to the control) ([1]; 48 hours): 89 | MTS assay result, run 1 ([1]; 48 hours): 0.114 | MTS assay result, run 2 ([1]; 48 hours): 0.125 | MTS assay result, run 3 ([1]; 48 hours): 0.13 | MTS assay result, run 4 ([1]; 48 hours): 0.123 | MTS assay result, run 5 ([1]; 48 hours): 0.137 | MTS assay result, run 6 ([1]; 48 hours): 0.137 | MTS assay result, run 7 ([1]; 48 hours): 0.16 | MTS assay result, run 8 ([1]; 48 hours): 0.16 | MTS assay result, run 9 ([1]; 48 hours): 0.135 | rel amnt (relative value set to the control) ([1]; 72 hours): 177 | MTS assay result, run 1 ([1]; 72 hours): 0.776 | MTS assay result, run 2 ([1]; 72 hours): 0.744 | MTS assay result, run 3 ([1]; 72 hours): 0.88 | MTS assay result, run 4 ([1]; 72 hours): 0.734 | MTS assay result, run 5 ([1]; 72 hours): 0.812 | MTS assay result, run 6 ([1]; 72 hours): 0.817 | MTS assay result, run 7 ([1]; 72 hours): 0.77 | MTS assay result, run 8 ([1]; 72 hours): 0.759 | MTS assay result, run 9 ([1]; 72 hours): 0.786 | rel amt (relative value set to the control) (BXPC3 cells; 48 hours): 99 | MTT assay result, av-blank (BXPC3 cells; 48 hours): 0.226 | MTT assay result, av (average) (BXPC3 cells; 48 hours, average of 7 runs): 0.275 | MTT assay result, run 1 (BXPC3 cells; 48 hours): 0.259 | MTT assay result, run 2 (BXPC3 cells; 48 hours): 0.257 | MTT assay result, run 3 (BXPC3 cells; 48 hours): 0.289 | MTT assay result, run 4 (BXPC3 cells; 48 hours): 0.279 | MTT assay result, run 5 (BXPC3 cells; 48 hours): 0.268 | MTT assay result, run 6 (BXPC3 cells; 48 hours): 0.292 | MTT assay result, run 7 (BXPC3 cells; 48 hours): 0.283 | rel amt (relative value set to the control) (BXPC3 cells; 120 hours (5 days)): 66 | MTT assay result, av-blank (BXPC3 cells; 120 hours (5 days)): 0.377 | MTT assay result, av (BXPC3 cells; 120 hours (5 days), average of 7 runs): 0.432 | MTT assay result, run 1 (BXPC3 cells; 120 hours (5 days)): 0.418 | MTT assay result, run 2 (BXPC3 cells; 120 hours (5 days)): 0.446 | MTT assay result, run 3 (BXPC3 cells; 120 hours (5 days)): 0.446 | MTT assay result, run 4 (BXPC3 cells; 120 hours (5 days)): 0.457 | MTT assay result, run 5 (BXPC3 cells; 120 hours (5 days)): 0.428 | MTT assay result, run 6 (BXPC3 cells; 120 hours (5 days)): 0.412 | MTT assay result, run 7 (BXPC3 cells; 120 hours (5 days)): 0.42 | rel amt (relative value set to the control) (MiaPaCa-2 cells; 24 hours): 66 | MTS assay result, run 1 (MiaPaCa-2 cells; 24 hours): 0.133 | MTS assay result, run 2 (MiaPaCa-2 cells; 24 hours): 0.135 | MTS assay result, run 3 (MiaPaCa-2 cells; 24 hours): 0.141 | MTS assay result, run 4 (MiaPaCa-2 cells; 24 hours): 0.127 | MTS assay result, run 5 (MiaPaCa-2 cells; 24 hours): 0.142 | MTS assay result, run 6 (MiaPaCa-2 cells; 24 hours): 0.166 | MTS assay result, run 7 (MiaPaCa-2 cells; 24 hours): 0.171 | MTS assay result, run 8 (MiaPaCa-2 cells; 24 hours): 0.162 | MTS assay result, run 9 (MiaPaCa-2 cells; 24 hours): 0.147 | rel amt (relative value set to the control) (MiaPaCa-2 cells; 48 hours): 37 | MTS assay result, run 1 (MiaPaCa-2 cells; 48 hours): 0.095 | MTS assay result, run 2 (MiaPaCa-2 cells; 48 hours): 0.116 | MTS assay result, run 3 (MiaPaCa-2 cells; 48 hours): 0.111 | MTS assay result, run 4 (MiaPaCa-2 cells; 48 hours): 0.128 | MTS assay result, run 5 (MiaPaCa-2 cells; 48 hours): 0.159 | MTS assay result, run 6 (MiaPaCa-2 cells; 48 hours): 0.147 | MTS assay result, run 7 (MiaPaCa-2 cells; 48 hours): 0.167 | MTS assay result, run 8 (MiaPaCa-2 cells; 48 hours): 0.152 | MTS assay result, run 9 (MiaPaCa-2 cells; 48 hours): 0.134 | rel amt (relative value set to the control) (MiaPaCa-2 cells; 72 hours): 177 | MTS assay result, run 1 (MiaPaCa-2 cells; 72 hours): 0.776 | MTS assay result, run 2 (MiaPaCa-2 cells; 72 hours): 0.744 | MTS assay result, run 3 (MiaPaCa-2 cells; 72 hours): 0.876 | MTS assay result, run 4 (MiaPaCa-2 cells; 72 hours): 0.734 | MTS assay result, run 5 (MiaPaCa-2 cells; 72 hours): 0.812 | MTS assay result, run 6 (MiaPaCa-2 cells; 72 hours): 0.817 | MTS assay result, run 7 (MiaPaCa-2 cells; 72 hours): 0.773 | MTS assay result, run 8 (MiaPaCa-2 cells; 72 hours): 0.759 | MTS assay result, run 9 (MiaPaCa-2 cells; 72 hours): 0.786
